Measured values taken from ChEMBL document CHEMBL1138755, “A peptide nucleic acid-neamine conjugate that targets and cleaves HIV-1 TAR RNA inhibits viral replication” (J Med Chem, 2004).

Test system: Human immunodeficiency virus 1
Assay: Ability of the conjugate to block HIV-1 production when supplemented in a culture medium; NI= No inhibition of the HIV-1 replication even at concentration >5 uM
Assay type: functional, organism-based

NC[C@H]1O[C@H](O[C@H]2[C@H](O)[C@@H](O)[C@H](N)C[C@@H]2N)[C@H](N)[C@@H](O)[C@@H]1O was tested, and the inhibition was “No inhibition”.
